Live cells data for 1 molecule are collected here from patent publication US20230272484A1, “METHODS OF PROGNOSING, DETERMINING TREATMENT COURSE AND TREATING MULTIPLE MYELOMA” (Yeda Research and Development Co. Ltd., priority 2020, published 2023).

The structures appear in SMILES notation.

In this experiment the test system is ex-vivo cultured patient malignant plasma cells (PRMM patient Z01). Description: FACS apoptosis assay (DAPI and Annexin-V) on ex vivo cultured patient cells. In kind it is cell-based, human. The following applies: resistant PRMM patient Z01, DAPI and Annexin-V FACS. The procedure: Finally, it was evaluated whether this synergistic effect is also relevant to PI resistant MM patients. For this end, the present inventors collected BM sample from a highly resistant PRMM patient (Z01, Methods) and sorted the cells for MARS-seq analysis, confirming the patient is also positive for the resistance signature 1 (FIGS. 9E-G). […] The present inventors evaluated the patient ex vivo response to these treatments by FACS analysis of apoptotic cells using DAPI and Annexin-V staining.

On to `CC(C)C[C@H](NC(=O)[C@H](CCc1ccccc1)NC(=O)CN1CCOCC1)C(=O)N[C@@H](Cc1ccccc1)C(=O)N[C@@H](CC(C)C)C(=O)[C@@]1(C)CO1` [Carfilzomib], for which the live cells is reported as 23.4%.
